Tests used:
Settings in all cases: 72 h
[1] = system: Caco-2; experiment: cell viability relative to DMSO; higher = less toxic
[2] = system: Calu-3; experiment: as above
[3] = system: HepG2; experiment: as above
[4] = system: U2OS; experiment: as above
[5] = system: Vero E6; experiment: as above
[6] = system: Caco-2; experiment: relative viability EC50 (midpoint between 100% and the lowest measured viability); higher = less toxic
[7] = system: Calu-3; experiment: as above
[8] = system: HepG2; experiment: as above
[9] = system: U2OS; experiment: as above
[10] = system: Vero E6; experiment: as above
[11] = system: Caco-2; experiment: drug sensitivity score (DSS) for viability; higher = more toxic; extreme values may be limits of the assay
[12] = system: Calu-3; experiment: as above
[13] = system: HepG2; experiment: as above
[14] = system: U2OS; experiment: as above
[15] = system: Vero E6; experiment: as above

SMILES: O=C(O)c1cccc(-c2noc(-c3ccccc3F)n2)c1 [ataluren]
- cell viability ([1]; 1 nM): 97%
- cell viability ([1]; 10 nM): 101%
- cell viability ([1]; 100 nM): 98.6%
- cell viability ([1]; 1000 nM): 111%
- cell viability ([1]; 10000 nM): 94.3%
- cell viability ([2]; 1 nM): 98.5%
- cell viability ([2]; 10 nM): 89.7%
- cell viability ([2]; 100 nM): 104%
- cell viability ([2]; 1000 nM): 94.2%
- cell viability ([2]; 10000 nM): 99.6%
- cell viability ([3]; 1 nM): 101%
- cell viability ([3]; 10 nM): 107%
- cell viability ([3]; 100 nM): 105%
- cell viability ([3]; 1000 nM): 97.2%
- cell viability ([3]; 10000 nM): 90.9%
- cell viability ([4]; 1 nM): 96.6%
- cell viability ([4]; 10 nM): 99.4%
- cell viability ([4]; 100 nM): 95.7%
- cell viability ([4]; 1000 nM): 101%
- cell viability ([4]; 10000 nM): 93.5%
- cell viability ([5]; 1 nM): 103%
- cell viability ([5]; 10 nM): 102%
- cell viability ([5]; 100 nM): 106%
- cell viability ([5]; 1000 nM): 106%
- cell viability ([5]; 10000 nM): 95.7%
- relative viability EC50 [6]: > 10 µM
- relative viability EC50 [7]: > 10 µM
- relative viability EC50 [8]: > 10 µM
- relative viability EC50 [9]: > 10 µM
- relative viability EC50 [10]: > 10 µM
- drug sensitivity score [11]: 0
- drug sensitivity score [12]: 0
- drug sensitivity score [13]: 0
- drug sensitivity score [14]: 0
- drug sensitivity score [15]: 0

SMILES: CN[C@@H](C)C(=O)N[C@H](C(=O)N1CCC[C@H]1C(=O)Nc1sc(-c2ncco2)nc1-c1ccccc1)C1CCCCC1 [CUDC-427]
- cell viability ([1]; 1 nM): 98.1%
- cell viability ([1]; 10 nM): 101%
- cell viability ([1]; 100 nM): 98.5%
- cell viability ([1]; 1000 nM): 109%
- cell viability ([1]; 10000 nM): 99.7%
- cell viability ([2]; 1 nM): 96.6%
- cell viability ([2]; 10 nM): 107%
- cell viability ([2]; 100 nM): 86.5%
- cell viability ([2]; 1000 nM): 102%
- cell viability ([2]; 10000 nM): 85.6%
- cell viability ([3]; 1 nM): 111%
- cell viability ([3]; 10 nM): 91.5%
- cell viability ([3]; 100 nM): 96.3%
- cell viability ([3]; 1000 nM): 90%
- cell viability ([3]; 10000 nM): 95.2%
- cell viability ([4]; 1 nM): 98%
- cell viability ([4]; 10 nM): 99.9%
- cell viability ([4]; 100 nM): 99.2%
- cell viability ([4]; 1000 nM): 108%
- cell viability ([4]; 10000 nM): 92.7%
- cell viability ([5]; 1 nM): 94.2%
- cell viability ([5]; 10 nM): 96.6%
- cell viability ([5]; 100 nM): 105%
- cell viability ([5]; 1000 nM): 105%
- cell viability ([5]; 10000 nM): 111%
- relative viability EC50 [6]: > 10 µM
- relative viability EC50 [7]: > 10 µM
- relative viability EC50 [8]: > 10 µM
- relative viability EC50 [9]: > 10 µM
- relative viability EC50 [10]: > 10 µM
- drug sensitivity score [11]: 0
- drug sensitivity score [12]: 0.1
- drug sensitivity score [13]: 0
- drug sensitivity score [14]: 0
- drug sensitivity score [15]: 0

SMILES: Oc1ccc2ccccc2c1 [beta-naphthol]
- cell viability ([1]; 1 nM): 102%
- cell viability ([1]; 10 nM): 90.3%
- cell viability ([1]; 100 nM): 99.1%
- cell viability ([1]; 1000 nM): 89.8%
- cell viability ([1]; 10000 nM): 83.2%
- cell viability ([2]; 1 nM): 114%
- cell viability ([2]; 10 nM): 98.4%
- cell viability ([2]; 100 nM): 104%
- cell viability ([2]; 1000 nM): 114%
- cell viability ([2]; 10000 nM): 116%
- cell viability ([3]; 1 nM): 94%
- cell viability ([3]; 10 nM): 90.7%
- cell viability ([3]; 100 nM): 102%
- cell viability ([3]; 1000 nM): 89.1%
- cell viability ([3]; 10000 nM): 99.4%
- cell viability ([4]; 1 nM): 102%
- cell viability ([4]; 10 nM): 99.6%
- cell viability ([4]; 100 nM): 104%
- cell viability ([4]; 1000 nM): 97.2%
- cell viability ([4]; 10000 nM): 104%
- cell viability ([5]; 1 nM): 94.4%
- cell viability ([5]; 10 nM): 99.5%
- cell viability ([5]; 100 nM): 98.7%
- cell viability ([5]; 1000 nM): 104%
- cell viability ([5]; 10000 nM): 90.7%
- relative viability EC50 [6]: > 10 µM
- relative viability EC50 [7]: > 10 µM
- relative viability EC50 [8]: > 10 µM
- relative viability EC50 [9]: > 10 µM
- relative viability EC50 [10]: > 10 µM
- drug sensitivity score [11]: 0.6
- drug sensitivity score [12]: 0
- drug sensitivity score [13]: 0
- drug sensitivity score [14]: 0
- drug sensitivity score [15]: 0
